Literature values as cited in patent US6399089B1, “Compositions and methods for regulating metabolism and balancing body weight” (priority 2000, dated 2002).
Like-named read-outs stand apart in the source and are kept apart here.

Legend:
[1] = rats
[2] = 200 mcg, after 26 weeks, obese patients, very low calorie diet

## CC(=O)Oc1ccccc1C(=O)O [aspirin]
Lean women
  thermogenic response of ephedrine during a meal: not lean women
Obese women
  thermogenic response of ephedrine during a meal: potentiated

## CN[C@@H](C)[C@H](O)c1ccccc1 [ephedrine]
[1]
  increase in energy expenditure: 9%
  reduction of body fat: 50%
  reduction of body weight: 18%

## chromium picolinate
[2]
  lean body mass: increased lean body mass
